The source of these data is ChEMBL document CHEMBL1135738, “Synthesis of novel cationic lipids: effect of structural modification on the efficiency of gene transfer” (J Med Chem, 2002).

The test concerns V79. Kind of test: Cytotoxic effect of compound was measured in lipid V79cell formulation. To be noted: Cricetulus griseus. The class given is functional, cell-based.

In the case of `CCCCCCCCCCCCOCC(CN)OCCCCCCCCCCCC` (stereo not given), it took 75 µM to reach half-maximal inhibition (IC50).

For the molecule `CCCCCCCCCCCCCCCCCCOCC(CN)OCCCCCCCCCCCC` (stereo not given), inhibition was half-maximal at 76 µM (IC50).

For the molecule `CCCCCCCCCCCCCCCCCCOCC(CN)OCCCCCCCCCCCCCCCCCC` (stereo not given), the 50% inhibitory concentration (IC50) (in general, the concentration needed to halve the response being measured) is 67 µM.

Molecule `CCCCCCCCCCCCOCC(CNC(=O)[C@@H](N)CCCCN)OCCCCCCCCCCCC` (stereo not given in full) came in with an IC50 of 34 µM.

Consider `CCCCCCCCCCCCOCC(CNC(=O)[C@@H](N)CCCN=C(N)N)OCCCCCCCCCCCC` (stereo not given in full), for which the IC50 was 20 µM.
